Assay results reported in patent publication US11104648B2, “Pyrazole derivative” (Zhejiang Research Institute of Chemical Industry Co., Ltd., priority 2018, dated 2021).
Read-outs that look alike come from different tables or passages of the source.

Key:
Format in all cases: in vivo
[1] = test system: Eggs of Tetranychus Cinnabarinus; test: Activity assay of eggs of Tetranychus cinnabarinus (spray method, ovicidal); settings: Tetranychus cinnabarinus; for pest or weed control at 5 µg/mL: concentration 5 mg/L, non-incubated eggs counted as dead; for pest or weed control at 2 µg/mL: concentration 2 mg/L
Procedure, shortened: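 Ovicidal spray test: compound dissolved in DMF, diluted with 1‰ Tween 80 (DMF ≤10%), sprayed on eggs laid during 24 h by females on broad bean leaves. Culture at 26±2° C, 70–80% RH, 16 h photoperiod; non-hatched eggs scored as dead when blank control hatched; three repeats.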

[2] = test system: adult Tetranychus cinnabarinus; test: Activity assay of adult Tetranychus cinnabarinus (whole-plant spray on bean seedlings); settings: 48 h; for pest or weed control at 2.5 µg/mL: concentration 2.5 mg/L; for pest or weed control at 1.25 µg/mL: concentration 1.25 mg/L
Procedure, shortened: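 Whole plants sprayed after adult mite inoculation and initial census, using compound dissolved in DMF and made up with 1‰ Tween 80 water (DMF not above 10%). Mortality derived from survivor counts at 48 h after treatment. Each treatment run in triplicate.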

[3] = test system: Tetranychus cinnabarinus Nymphs; test: Activity assay of Tetranychus cinnabarinus nymphs (spray on broad bean leaves); settings: 48 h; for pest or weed control at 2.5 µg/mL: concentration 2.5 mg/L; for pest or weed control at 2.5 µg/mL / pest or weed control at 2 µg/mL: read-out: nymph-killing activity; for pest or weed control at 2 µg/mL: concentration 2 mg/L
Procedure, shortened: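 Mortality, judged as no response to gentle touch, was scored 48 h after spraying Tetranychus cinnabarinus nymphs on broad bean leaves (eggs from females removed after 24 h). Test solutions: DMF-dissolved compound, ≤10% DMF, in 1‰ Tween 80; 26±2° C., 70%–80% RH, 16 h light; triplicate, blank control.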

[4] = spray, read-out: ovicidal activity
[5] = read-out: adult mite-killing activity

Compound	pest or weed control at 5 µg/mL [1, 4] [%]	pest or weed control at 2.5 µg/mL [2, 5] [%]	pest or weed control at 2.5 µg/mL [3] [%]	pest or weed control at 2 µg/mL [1, 4] [%]	pest or weed control at 2 µg/mL ([1]; eggs, parallel determination, read-out: Death rate (%)) [%]	pest or weed control at 1.25 µg/mL ([2]; adult mites, parallel determination, read-out: Death rate (%)) [%]	pest or weed control at 1.25 µg/mL [2, 5] [%]	pest or weed control at 2 µg/mL [3] [%]	pest or weed control at 0.5 µg/mL ([3]; nymphs, concentration 0.5 mg/L, parallel determination, read-out: Death rate (%)) [%]
C=CC(=O)OC(C)O/C(=C(/C#N)c1ccc(C(C)(C)C)cc1)c1c(C)c(C)nn1CC (stereo not drawn) [Compound 417]	≥ 90	≥ 90	≥ 95						
COC(=O)OCO/C(=C(/C#N)c1ccc(C(C)(C)C)cc1)c1cc(C)nn1C [Compound 451]	≥ 90	≥ 90	≥ 95						
CCOC(=O)OCO/C(=C(/C#N)c1ccc(C(C)(C)C)cc1)c1cc(C)nn1C [Compound 452]	≥ 90	≥ 90	≥ 95						
Cc1cc(/C(OCOC(=O)OC(C)C)=C(\C#N)c2ccc(C(C)(C)C)cc2)n(C)n1 [Compound 454]	≥ 90	≥ 90	≥ 95						
CCCCOC(=O)OCO/C(=C(/C#N)c1ccc(C(C)(C)C)cc1)c1cc(C)nn1C [Compound 456]	≥ 90	≥ 90	≥ 95						
Cc1cc(/C(OCOC(=O)OCC(C)C)=C(\C#N)c2ccc(C(C)(C)C)cc2)n(C)n1 [Compound 457]	≥ 90	≥ 90	≥ 95						
Cc1cc(/C(OCOC(=O)OCCC(C)C)=C(\C#N)c2ccc(C(C)(C)C)cc2)n(C)n1 [Compound 458]	≥ 90	≥ 90	≥ 95						
CCCCCOC(=O)OCO/C(=C(/C#N)c1ccc(C(C)(C)C)cc1)c1cc(C)nn1C [Compound 460]	≥ 90	≥ 90	≥ 95						
Cc1cc(/C(OCOC(=O)OCC(F)(F)F)=C(\C#N)c2ccc(C(C)(C)C)cc2)n(C)n1 [Compound 467]	≥ 90	≥ 90	≥ 95						
COCCOC(=O)OCO/C(=C(/C#N)c1ccc(C(C)(C)C)cc1)c1cc(C)nn1C [Compound 468]	≥ 90	≥ 90	≥ 95						
CSCCOC(=O)OCO/C(=C(/C#N)c1ccc(C(C)(C)C)cc1)c1cc(C)nn1C [Compound 471]	≥ 90	≥ 90	≥ 95						
C=CCOC(=O)OCO/C(=C(/C#N)c1ccc(C(C)(C)C)cc1)c1cc(C)nn1C [Compound 474]	≥ 90	≥ 90	≥ 95						
C#CCOC(=O)OCO/C(=C(/C#N)c1ccc(C(C)(C)C)cc1)c1cc(C)nn1C [Compound 476]	≥ 90	≥ 90	≥ 95						
COC(=O)COC(=O)OCO/C(=C(/C#N)c1ccc(C(C)(C)C)cc1)c1cc(C)nn1C [Compound 477]	≥ 90	≥ 90	≥ 95						
CCSC(=O)OCO/C(=C(/C#N)c1ccc(C(C)(C)C)cc1)c1cc(C)nn1C [Compound 480]	≥ 90	≥ 90	≥ 95						
COC(=O)CSC(=O)OCO/C(=C(/C#N)c1ccc(C(C)(C)C)cc1)c1cc(C)nn1C [Compound 481]	≥ 90	≥ 90	≥ 95						
COC(=O)OC(C)O/C(=C(/C#N)c1ccc(C(C)(C)C)cc1)c1cc(C)nn1C (stereo not drawn) [Compound 483]	≥ 90	≥ 90	≥ 95						
Cc1cc(/C(OC(C)OC(=O)OC(C)C)=C(\C#N)c2ccc(C(C)(C)C)cc2)n(C)n1 (stereo not drawn) [Compound 486]	≥ 90	≥ 90	≥ 95						
CCCCOC(=O)OC(C)O/C(=C(/C#N)c1ccc(C(C)(C)C)cc1)c1cc(C)nn1C (stereo not drawn) [Compound 488]	≥ 90	≥ 90	≥ 95						
Cc1cc(/C(OC(C)OC(=O)OCC(C)C)=C(\C#N)c2ccc(C(C)(C)C)cc2)n(C)n1 (stereo not drawn) [Compound 489]	≥ 90	≥ 90	≥ 95						

Compound	pest or weed control at 5 µg/mL [1, 4] [%]	pest or weed control at 2.5 µg/mL [2, 5] [%]	pest or weed control at 2.5 µg/mL [3] [%]	pest or weed control at 2 µg/mL [1, 4] [%]	pest or weed control at 2 µg/mL ([1]; eggs, parallel determination, read-out: Death rate (%)) [%]	pest or weed control at 1.25 µg/mL ([2]; adult mites, parallel determination, read-out: Death rate (%)) [%]	pest or weed control at 1.25 µg/mL [2, 5] [%]	pest or weed control at 2 µg/mL [3] [%]	pest or weed control at 0.5 µg/mL ([3]; nymphs, concentration 0.5 mg/L, parallel determination, read-out: Death rate (%)) [%]
Cc1cc(/C(OC(C)OC(=O)OCCC(C)C)=C(\C#N)c2ccc(C(C)(C)C)cc2)n(C)n1 (stereo not drawn) [Compound 490]	≥ 90	≥ 90	≥ 95						
CCCCCOC(=O)OC(C)O/C(=C(/C#N)c1ccc(C(C)(C)C)cc1)c1cc(C)nn1C (stereo not drawn) [Compound 492]	≥ 90	≥ 90	≥ 95						
Cc1cc(/C(OC(C)OC(=O)OCCCl)=C(\C#N)c2ccc(C(C)(C)C)cc2)n(C)n1 (stereo not drawn) [Compound 494]	≥ 90	≥ 90	≥ 95						
Cc1cc(/C(OC(C)OC(=O)OCC(F)(F)F)=C(\C#N)c2ccc(C(C)(C)C)cc2)n(C)n1 (stereo not drawn) [Compound 499]	≥ 90	≥ 90	≥ 95						
COCCOC(=O)OC(C)O/C(=C(/C#N)c1ccc(C(C)(C)C)cc1)c1cc(C)nn1C (stereo not drawn) [Compound 500]	≥ 90	≥ 90	≥ 95						
CSCCOC(=O)OC(C)O/C(=C(/C#N)c1ccc(C(C)(C)C)cc1)c1cc(C)nn1C (stereo not drawn) [Compound 503]	≥ 90	≥ 90	≥ 95						
C=CCOC(=O)OC(C)O/C(=C(/C#N)c1ccc(C(C)(C)C)cc1)c1cc(C)nn1C (stereo not drawn) [Compound 506]	≥ 90	≥ 90	≥ 95						
C#CCOC(=O)OC(C)O/C(=C(/C#N)c1ccc(C(C)(C)C)cc1)c1cc(C)nn1C (stereo not drawn) [Compound 508]	≥ 90	≥ 90	≥ 95						
COC(=O)COC(=O)OC(C)O/C(=C(/C#N)c1ccc(C(C)(C)C)cc1)c1cc(C)nn1C (stereo not drawn) [Compound 509]	≥ 90	≥ 90	≥ 95						
CCSC(=O)OC(C)O/C(=C(/C#N)c1ccc(C(C)(C)C)cc1)c1cc(C)nn1C (stereo not drawn) [Compound 512]	≥ 90	≥ 90	≥ 95						
COC(=O)CSC(=O)OC(C)O/C(=C(/C#N)c1ccc(C(C)(C)C)cc1)c1cc(C)nn1C (stereo not drawn) [Compound 513]	≥ 90	≥ 90	≥ 95						
CCn1nc(C)cc1/C(OCOC(=O)OC)=C(\C#N)c1ccc(C(C)(C)C)cc1 [Compound 547]				≥ 90	100	100	≥ 90	≥ 90	93
CCn1nc(C)cc1/C(OCOC(=O)OC(C)C)=C(\C#N)c1ccc(C(C)(C)C)cc1 [Compound 550]	≥ 90	≥ 90	≥ 95	≥ 90			≥ 90	≥ 90	
CCCCOC(=O)OCO/C(=C(/C#N)c1ccc(C(C)(C)C)cc1)c1cc(C)nn1CC [Compound 552]	≥ 90	≥ 90	≥ 95						
CCn1nc(C)cc1/C(OCOC(=O)OCC(C)C)=C(\C#N)c1ccc(C(C)(C)C)cc1 [Compound 553]	≥ 90	≥ 90	≥ 95	≥ 90			≥ 90	≥ 90	
CCn1nc(C)cc1/C(OCOC(=O)OCCC(C)C)=C(\C#N)c1ccc(C(C)(C)C)cc1 [Compound 554]	≥ 90	≥ 90	≥ 95						
CCCCCOC(=O)OCO/C(=C(/C#N)c1ccc(C(C)(C)C)cc1)c1cc(C)nn1CC [Compound 556]	≥ 90	≥ 90	≥ 95						
CCn1nc(C)cc1/C(OCOC(=O)OCCCl)=C(\C#N)c1ccc(C(C)(C)C)cc1 [Compound 558]	≥ 90	≥ 90	≥ 95						
CCn1nc(C)cc1/C(OCOC(=O)OCC(F)(F)F)=C(\C#N)c1ccc(C(C)(C)C)cc1 [Compound 563]	≥ 90	≥ 90	≥ 95						
CCn1nc(C)cc1/C(OCOC(=O)OCCOC)=C(\C#N)c1ccc(C(C)(C)C)cc1 [Compound 564]	≥ 90	≥ 90	≥ 95						
